# Experimental data as given in patent publication US20240245780A1, “PHARMACEUTICAL COMPOSITIONS CONTAINING STABLE AMORPHOUS SOLID SOLUTIONS AND DISPERSIONS” (Eastman Chemical Company, priority 2021, published 2024).
# Like-named read-outs stand apart in the source and are kept apart here.
# How the values were obtained:
# [1] = Solubility study of PSD in heated SAIB, HPLC; type: physicochemical
# Description: Analysis of drugs was performed by HPLC. […] Solubility was determined in three replicates for each drug.
# SAIB was heated to 150° C. (RFX, DST, DLT, CYS, ITZ, SRL, APT and CBZ) or 130° C. (TAC and APZ), followed by addition of a known amount of the drug to dissolve in 30 min. Approximately, 100 mg of each sample were transferred to a 100-mL volumetric flask, and volume was made up with the mobile phase to dissolve the drug. The amount of dissolved drug was determined by validated HPLC.
# [2] = cited from earlier work
# [3] = JECFA 1996, including pediatric populations; cited from earlier work
# [4] = SAIB temperature 150° C., 30 min, three replicates
Compound,"Solubility in SAIB [1, 4]",Increase in Solubility Relative to Water [1],pKa [2],also measured
Cc1nc(Nc2ncc(C(=O)Nc3c(C)cccc3Cl)s2)cc(N2CCN(CCO)CC2)n1 [Dasatinib],insoluble,–,–,–
O=C1CCc2ccc(OCCCCN3CCN(c4cccc(Cl)c4Cl)CC3)cc2N1 [Aripiprazole],–,–,–,Solubility in SAIB [1]: 21.6 ± 2.6 mg/g
NC(=O)N1c2ccccc2C=Cc2ccccc21 [Carbamazepine],76.5 ± 4.0 mg/g,532.3x,–,"Solubility in SAIB (in words) ([1]; SAIB at 130 or 150° C.): high solubility; Solubility in SAIB ([1]; SAIB temperature 150° C., 30 min, three replicates, listed as CBZ): 76.5 ± 4.0 mg/g"
CO[C@H]1/C=C/O[C@@]2(C)Oc3c(C)c(O)c4c(O)c(c5c(nc6cc(C)ccn65)c4c3C2=O)NC(=O)/C(C)=C\C=C\[C@H](C)[C@H](O)[C@@H](C)[C@@H](O)[C@@H](C)[C@H](OC(C)=O)[C@@H]1C [Rifaximin],–,–,7,Solubility in SAIB (in words) [1]: high solubility
C[C@@H](O[C@H]1OCCN(Cc2n[nH]c(=O)[nH]2)[C@H]1c1ccc(F)cc1)c1cc(C(F)(F)F)cc(C(F)(F)F)c1 [Aprepitant],–,55.7x,10,–
sucrose acetate isobutyrate [SAIB],–,–,–,permanent acceptable daily intake [3]: up to 20 mg/kg body weight; log P of SAIB [2]: 6

# Now from value to compound, other results behind:
"Solubility in SAIB [1, 4]",Increase in Solubility Relative to Water [1],Compound,pKa [2],also measured
–,9591.7x,C=CC[C@@H]1/C=C(\C)C[C@H](C)C[C@H](OC)[C@H]2O[C@@](O)(C(=O)C(=O)N3CCCC[C@H]3C(=O)O[C@H](/C(C)=C/[C@@H]3CC[C@@H](O)[C@H](OC)C3)[C@H](C)[C@@H](O)CC1=O)[C@H](C)C[C@@H]2OC [Tacrolimus],10,"Solubility in SAIB (in words) ([1]; SAIB at 130 or 150° C.): high solubility; Solubility in SAIB ([1]; SAIB temperature 130° C., 30 min, three replicates, listed as TAC): 115.1 ± 2.3 mg/g; Solubility in SAIB ([1]; SAIB temperature 130° C., 30 min, three replicates, listed as Tracolimus): 115.1 ± 2.3 mg/g"
1.9 ± 0.0 mg/g,–,CO[C@H]1C[C@@H]2CC[C@@H](C)[C@@](O)(O2)C(=O)C(=O)N2CCCC[C@H]2C(=O)O[C@H]([C@H](C)C[C@@H]2CC[C@@H](O)[C@H](OC)C2)CC(=O)[C@H](C)/C=C(\C)[C@@H](O)[C@@H](OC)C(=O)[C@H](C)C[C@H](C)/C=C/C=C/C=C/1C [Sirolimus],10,–
insoluble,–,CCC(C)n1ncn(-c2ccc(N3CCN(c4ccc(OCC5COC(Cn6cncn6)(c6ccc(Cl)cc6Cl)O5)cc4)CC3)cc2)c1=O (stereo not shown) [Itraconazole],–,–
1.7 ± 0.4 mg/g,–,C[C@@H]1CCO[C@H]2Cn3cc(C(=O)NCc4ccc(F)cc4F)c(=O)c(O)c3C(=O)N12 [Dolutegravir],8,–
